Ends that are not written are not given here.
Assays:
3T3-L1 adipocytes = assay: [14C] 2-deoxy-D-glucose uptake in 3T3-L1 adipocytes; format: cell-based; conditions: for effect of pretreatment on LPC-stimulated glucose uptake: then 20 μM LPC 10 min; for stimulation of glucose uptake: equimolar 20 μM, 10 min; for time and dose dependence of glucose uptake: various concentrations
Method: Cell culture: 3T3-L1 fibroblasts were grown to confluence in DMEM containing a high glucose concentration, 10% fetal bovine serum, 50 U of penicillin per ml, and 50 ug of streptomycin per ml and maintained in a 5% CO2 humidified atmosphere at 37° C. 3T3-L1 was induced to differentiate into adipocytes, as described previously (van den Berghe, N., et al., Mol Cell Biol 14, pp. 2372-2377, 1994).
Glucose uptake measurement. For measuring glucose uptake in 3T3-L1 adipocytes, cells were grown in serum-free DMEM for 16 h and then incubated in the absence or presence of insulin or lysophospholipids for the indicated times at 37° C. Uptake was measured by adding 1 μCi of [^14C] 2-deoxy-D-glucose and 3 mM 2-deoxy-D-glucose. After 10 min, the assay was terminated by two quick washes with ice-cold PBS. Cells were lysed in 0:5 ml of lysis buffer containing 0.5 N NaOH and 0.1% SDS. The cell lysates were used for liquid scintillation counting and nonspecific uptake was assayed in the presence of 10 μM cytochalasin B (van den Berghe, N., et al., Mol Cell Biol 14, pp. 2372-2377, 1994).
FIG. 2A to 2D show the effects of LPC on the glucose uptake in 3T3-L1 adipocytes. […] After these treatments, [^14C] 2-deoxy-D-glucose uptake was measured for 10 min as described in Material Methods. […] FIGS. 2C and 2D show relative [^14C] 2-deoxy-D-glucose uptake in 3T3-L1 adipocytes incubated in the absence (control) or presence of equimolar concentrations (20 μM) of myristoyl lysophosphatidylcholine (14:0 LPC), palmytoyl lysophosphatidylcholine (16:0 LPC), stearoyl lysophosphatidylcholine (18:0 LPC), palmytoyl lysophsophatidylethanolamine (16:0 LPE), palmytoyl lyso-phosphatidylinositol (16:0 LPI), palmytoyl lysophosphatidylglycerol (16:0 LPG) for 10 min. Values are mean±SE of three independent experiments performed in triplicate. *P<0.05 vs. basal.

male ICR mice [1] = assay: Acute blood glucose lowering in normal ICR mice after intravenous lysophospholipid; format: in vivo, mouse; conditions: for level of blood glucose in normal mice: intravenous, 0 to 120 min after dosing
insulin receptor (IR) = assay: IR autophosphorylation in hIRcB cells; format: cell-based, human; conditions: hIRcB cells
Method: FIG. 12A shown a comparison of insulin sensitizing effect among CRF family which was obtained by incubating cells with 1 μM CRF family and/or 2 nM insulin or with medium alone for 1 min. […] FIG. 12B was obtained by incubating cells with 2 nM insulin and variant dose of UCN (from 2 nM to 1 μM) for 1 min. FIG. 12C was obtained by incubating cells 100 nM UCN and variant dose of insulin for 1 min. Phosphorlyation of IR was assessed by western blotting with anti-pTyr antibodies. FIG. 13D was obtained by incubating cells with 100 nM UCN and/or 10 nM insulin for 0, 2, 10, 30, and 60 min, and then assessing the phosphorlyation of IR by western blotting with anti-pIR antibodies. Quantization of IR autophosphorylation was measured with image gauge software (Fuji film). The values are the mean±S.E. for three experiments. *, P<0.05
hIRcB cells were maintained in DMEM, supplemented with 10% (v/v) FBS. The cells were grown at 37° C. in a humidified atmosphere of 5% CO2 and 95% air.
After treatment of ligands as indicated time and dose, the cells were washed with cold PBS and lysed with lysis buffer (50 mM HEPES pH 7.5, 150 mM NaCl, 1%
Triton X-100, 1 mM EDTA, 10% glycerol) containing protease inhibitors (0.5 mM PMSF, 1 μg/ml leupeptin and 5 μg/ml aprotinin) and phosphatase inhibitors (30 mM NaF, 1 mM Na3VO4 and 30 mM Na4O7P2). The cell lysates were incubated for 1 hr at 4° C. After centrifugation (14,000×g for 15 min), equal amounts of soluble extract were incubated, for 4 hrs, with 5 μg of anti-IR antibody and 30 μl of resin volume of immobilized protein A. For gel electrophoresis, the precipitates were dissolved in Laemmli sample buffer. The sample was separated by SDS-PAGE and transferred to a nitrocellulose membrane (Schleicher and Schuell, BA85). Blocking was performed with TTBS buffer (10 mM Tris/HCl, pH 7.5, 150 mM NaCl, and 0.05% Tween 20) containing 5% skimmed milk powder. The membrane was probed with primary for 3 hrs at room temperature. Subsequently the immunoblot was washed and incubated with horseradish peroxidase-linked secondary antibody for 1 hr at room temperature, rinsed four times in TTBS buffer, and developed with horseradish peroxidase-dependent chemiluminescence reagents (Amersham International, United Kingdom).

IRS1 and AKT = IRS1 and AKT phosphorylation in 3T3-L1 adipocytes (immunoblot); format: cell-based
Method: Immunoblotting. For preparing total cell lysates, 3T3-L1 adipocytes were washed with Ca^2+/Mg^2+-free PBS and then lysed in the lysis buffer (50 mM HEPES, pH 7.2, 150 mM NaCl, 50 mM NaF, 1 mM Na3VO4, 10% glycerol, 1% Triton X-100). The lysates were centrifuged at 15,000 rpm for 15 min at 4° C. The proteins were denatured by boiling in laemmli sample buffer for 5 min at 95° C., separated by SDS-PAGE. SDS-gel was transferred to nitrocellulose membrane using Hoefer wet transfer system. Membranes were blocked in TTBS (20 mM Tris-HCl, pH 7.6, 150 mM NaCl, 0.05% Tween 20) containing 5% skimmed milk powder for 30 min and then incubated with antibodies for 3 hours. After washing membranes several times with TTBS, the blots were incubated with HRP (Horseradish peroxidase)-conjugated goat anti-rabbit for 1 hour. The blots were washed with TTBS and developed by ECL.

GLUT4 = GLUT4 translocation to the plasma membrane in 3T3-L1 adipocytes; format: cell-based; conditions: 100 nM insulin, 10 min
Method: Membrane fractionation of adipocytes. For obtaining total membranes (TM) from 3T3-L1 adipocytes, cells were collected into 10 ml of ice-cold HES buffer (250 mM sucrose, 1 mM EDTA, 1 mM phenylmethylsulfonyl fluoride [PMSF], 1 μM pepstatin, 1 μM aprotinin, 1 μM leupeptin, and 20 mM HEPES, pH 7.4) and subsequently homogenized with 30 strokes in a glass Dounce homogenizer at 4° C. After centrifugation at 1,000 g for 5 min at 4° C. to remove unbroken cells, the supernatant was then centrifugated at 212,000 g for 90 min at 4° C. to yield a pellet of total cellular membranes. To obtain the plasma membrane (PM) subcellular fraction from 3T3-L1 adipocytes, differential ultracentrifugation was used as described previously (Perrini, S., et al., Diabetes 53, pp. 41-52, 2004).
Immunoblotting. For preparing total cell lysates, 3T3-L1 adipocytes were washed with Ca^2+/Mg^2+-free PBS and then lysed in the lysis buffer (50 mM HEPES, pH 7.2, 150 mM NaCl, 50 mM NaF, 1 mM Na3VO4, 10% glycerol, 1% Triton X-100). The lysates were centrifuged at 15,000 rpm for 15 min at 4° C. […]
FIGS. 3A and 3B show LPC stimulates GLUT4 translocation in 3T3-L1 adipocytes. […] In each experiment, the relative increase or decrease in the integrated density value (IDV) of GLUT4 after stimulation with compounds is calculated. B) Quantitation of relative increases is depicted. […]

male ICR mice [2] = assay: Serum insulin level in mice after single intravenous injection; format: in vivo, mouse
Method: (§1) Animals. Male ICR mice were purchased from hyochang science (ROK). C57BLKSJ-db/db mice were purchased from SLC (Japan). After intravenous injection of LPC, blood glucose was measured regularly with a portable glucose meter (Gluco-Dr, ROK) after tail snipping. For measurement of serum insulin, blood samples of mice were determined with the insulin-RIA Kit (LINCO, Missouri). Insulin deficient mice were induced in male ICR mice by two consecutive daily intraperitoneal injection of STZ (200 mg/kg) dissolved in sodium citrate (pH 5.5). On the third day after the last STZ injection, acute glucose lowering effect was analyzed after intravenous injection of vehicle, LPC or insulin as described above.
(§2) Eight-week-old male mice were intravenously injected with PBS, insulin, LPC, or LPE. Blood glucose was monitored after dosing (0 to 120 min). […] All animals had free access to water. Animal care was in accordance with institutional guidelines. All data are shown as means±SE (n=5-6).*P<0.05.

[3] = test system: STZ-treated insulin deficient ICR male mice; assay: Acute glucose lowering in streptozotocin (STZ)-treated insulin deficient ICR mice; format: in vivo, mouse; conditions: LPS injected, dose not given
Method: as §1, §2

[4] = 3T3-L1 adipocytes, 10 min incubation

Cn1c2ccccc2c2c3c(c4c5ccccc5n(CCC#N)c4c21)CNC3=O [Gö6976, reference compound]
effect of pretreatment on LPC-stimulated glucose uptake (3T3-L1 adipocytes; 2 μM Gö6976 for 30 min): did not alter LPC stimulation of glucose uptake

Cc1noc(-c2ccc(CSCCC(=O)O)cc2)c1NC(=O)OC(C)c1ccccc1Cl (stereo not shown) [Ki16425, reference compound]
effect of pretreatment on LPA-stimulated glucose uptake (3T3-L1 adipocytes; Ki16425 (LPA receptor antagonist) pretreatment): completely inhibited
effect on the glucose lowering effect by LPA (male ICR mice [1]; Ki16425 injected prior to administration of LPA): inhibited

CCCCCCCCCCCCC/C=C/[C@@H](O)[C@@H](N)COP(=O)(O)O [S1P]
level of blood glucose in normal mice (male ICR mice [1]; LPA study (FIG. 11A, 11B)): did not lower the blood glucose level in normal mice
level of blood glucose in normal mice (male ICR mice [1]; LPS study (FIG. 7A, 7B)): did not lower the blood glucose level in normal mice

CCCCCCCCCCCCCC(=O)OCC(O)COP(=O)([O-])OCC[N+](C)(C)C (stereo not shown) [myristoyl LPC, myristoyl lysophosphatidylcholine]
stimulation of glucose uptake (3T3-L1 adipocytes): stimulated glucose uptake

CCCCCCCCCCCCCCCC(=O)OC[C@@H](O)COP(=O)(O)OCCN [palmytoyl LPE, palmytoyl lysophsophatidylethanolamine]
stimulation of glucose uptake (3T3-L1 adipocytes): did not stimulate glucose uptake
level of blood glucose in normal mice (male ICR mice [1]; LPA study (FIG. 11A, 11B)): did not lower the blood glucose level in normal mice
level of blood glucose in normal mice (male ICR mice [1]; LPS study (FIG. 7A, 7B)): did not lower the blood glucose level in normal mice

CCCCCCCCCCCCCCCC(=O)OC[C@@H](O)COP(=O)(O)OCC(O)CO (stereo partly shown) [palmytoyl LPG, palmytoyl lysophosphatidylglycerol, reference compound]
stimulation of glucose uptake (3T3-L1 adipocytes): did not stimulate glucose uptake

CCCCCCCCCCCCCCCC(=O)OCC(O)COP(=O)(O)OC1C(O)C(O)C(O)C(O)C1O (stereo not shown) [palmytoyl LPI, palmytoyl lyso-phosphatidylinositol, reference compound]
stimulation of glucose uptake (3T3-L1 adipocytes): did not stimulate glucose uptake

CC(=O)c1c(O)c(C)c(O)c(Cc2c(O)c3c(c(C(=O)/C=C/c4ccccc4)c2O)OC(C)(C)C=C3)c1O [rottlerin, reference compound]
effect of pretreatment on LPC-stimulated glucose uptake (3T3-L1 adipocytes; 10 μM rottlerin for 30 min): completely inhibited

CCCCCCCCCCCCCCCCCC(=O)OCC(O)COP(=O)([O-])OCC[N+](C)(C)C (stereo not shown) [stearoyl LPC, stearoyl lysophosphatidylcholine, reference compound]
stimulation of glucose uptake (3T3-L1 adipocytes): did not stimulate glucose uptake

CRF: Corticotrophin releasing factor (CRF), synthesized from Anygen (SEEPPISLDLTFHLLREVLEMARAEQLAQQAHSNRKLMEII; ends and bridges not checked; UniProt P06850 154-194, looked up) [reference compound]
insulin-mediated IR phosphorylation (insulin receptor (IR); 1 μM CRF family peptide with 2 nM insulin, 1 min): potentate insulin-mediated IR phosphorylation
IR phosphorylation by peptide alone (insulin receptor (IR); without insulin): no effect on IR phosphorylation

insulin [reference compound]
phosphorylation of IRS1 and AKT (IRS1 and AKT; 10 nM insulin): augmentation of IRS1 and AKT phosphorylation
GLUT4 translocation (GLUT4): stimulate GLUT4 translocation

lysophosphatidic acid [LPA]
Akt phosphorylation (IRS1 and AKT; LPA treatment of 3T3-L1 adipocytes): stimulated Akt phosphorylation
incubation time at which glucose uptake was maximally increased (3T3-L1 adipocytes; 20 μM, 0 to 20 min): 10 min
concentration of initial statistically significant effect on glucose uptake (3T3-L1 adipocytes; [4]): 1 µM
concentration of maximal effect on glucose uptake (3T3-L1 adipocytes; [4]): 20 µM
time and dose dependence of glucose uptake (3T3-L1 adipocytes; 3T3-L1 adipocytes): time- and dose-dependent increase in glucose uptake
Gαi dependence of glucose uptake stimulation (3T3-L1 adipocytes; Gαi inhibitor pertussis toxin): stimulates glucose uptake via to Gαi activation
PI3-kinase dependence of glucose uptake stimulation (3T3-L1 adipocytes; LY294002 pretreatment): dependent on PI3-kinase activation
change in blood insulin levels (male ICR mice [2]): not due to changes in blood insulin levels
level of blood glucose in normal mice (male ICR mice [1]; LPA study (FIG. 11A, 11B)): lowered the level of blood glucose in normal mice dose-dependently

lysophosphatidylserine [LPS]
time and dose dependence of glucose uptake (3T3-L1 adipocytes; 3T3-L1 adipocytes): stimulate glucose uptake with dose dependent manner
stimulation of glucose uptake (3T3-L1 adipocytes): specifically stimulated glucose uptake
change in blood insulin levels (male ICR mice [2]): not due to changes in blood insulin levels
level of blood glucose in normal mice (male ICR mice [1]; LPS study (FIG. 7A, 7B)): lowered the level of blood glucose in normal mice dose-dependently
blood glucose concentrations in STZ-treated insulin deficient mice [3]: significantly reduced blood glucose concentrations

From patent US20100120662A1, “Glucose uptake modulator and method for treating diabetes or diabetic complications” (POSTECH Foundation, priority 2005, published 2010)
